Source: US20110065734A1, “NOVEL BIFUNCTIONAL COMPOUNDS WHICH INHIBIT PROTEIN KINASES AND HISTONE DEACETYLASES” (4SC AG, priority 2007, published 2011)
Structures can show the parent of a compound that is named as a salt. Where two headings read alike, the source gives them in different places.

How the values were obtained:
[1] = test system: histone H3 hyperacetylation in HeLa cervical carcinoma cells; experiment: Cellular histone H3 hyperacetylation assay; type: cell-based; conditions: Homo sapiens, 24 h, only a range over the listed compounds is given, read-out: Induction of histone H3 hyperacetylation in HeLa cervical carcinoma cells EC50
Excerpt: To assess the cellular efficacy of a histone deacetylase inhibitor in vitro, an assay was set up in black clear-bottom 96-well plates and optimized for use on the Cellomics “ArrayScan II” platform for a quantitative calculation of histone acetylation. The protocol uses a polyclonal rabbit antibody, specifically binding to acetylated lysine 1-20 of human histone H3 on fixed cells with an Alexa Fluor 488 labeled goat anti rabbit-IgG used for counterstaining (Beckers et al. Int J. Cancer 121, 1138, 2007).
5×10^3 HeLa cervical carcinoma cells/well (ATCC. CCL-2) in 200 μl Dulbecco rs modified Eagle's medium (DMEM) containing 10% fetal calf serum are seeded at day 1 in Packard view plates and incubated for 24 h under standard cell culture conditions. On day 2, 1 μl test compound (200× final concentration) is added and incubation continued for further 24 h. On day 3, the culture medium is discarded and attached cells fixed for 15 min at room temperature by addition of 100 μl fixation buffer (3.7% v:v formaldehyde in phosphate buffered saline/PBS). After discarding the fixation buffer and one wash with blocking solution (1% BSA, 0.3% Tween 20 in PBS), cells are permeabilized at room temperature by addition of 100 μl/well permeabilization buffer (30.8 mM NaCl, 0.54 mM Na2HPO4, 0.31 mM KH2PO4, 0.1% v:v Triton X-100) for 15 min at room temperature. After discarding the permeabilization buffer and washing twice with 100 μl/well blocking solution at room temperature, the 1st antibody (anti-K^1-20 histone H3 antibody, Calbiochem No. 382158) in blocking solution (50 μl/well) is added. After incubation for 1 h at room temperature, the wells are washed twice at room temperature with 100 μl/well blocking solution before addition of the 2nd antibody (goat-anti-rabbit Alexa Fluor 488; MoBiTec No. A-11008) in blocking solution (50 μl/well). After further incubation for 1 h at room temperature, wells are washed twice with 100 μl/well blocking solution at room temperature. Finally, 100 μl/well PBS are added and image analysis performed on the Cellomics “ArrayScan II” platform. For EC50 determination, the percentage of positive cells showing nuclear fluorescence is determined and EC50 calculation done from concentration-effect curves by means of non-linear regression. For calibration, a positive (reference HDAC inhibitors like SAHA or NVP LBH-589) and a negative control were included.

[2] = molecular target: T1, recombinant HDAC1 isolated from HEK293 cells with heterologous HDAC1 expression (Homo sapiens, UniProt Q13547); experiment: Fluorimetric rHDAC1 activity assay; type: biochemical; conditions: only a range of IC50 over the compounds given; read-out: rHDAC1 inhibitory activity IC50
T1 construct: made in house
T1 sequence (Q13547 whole entry): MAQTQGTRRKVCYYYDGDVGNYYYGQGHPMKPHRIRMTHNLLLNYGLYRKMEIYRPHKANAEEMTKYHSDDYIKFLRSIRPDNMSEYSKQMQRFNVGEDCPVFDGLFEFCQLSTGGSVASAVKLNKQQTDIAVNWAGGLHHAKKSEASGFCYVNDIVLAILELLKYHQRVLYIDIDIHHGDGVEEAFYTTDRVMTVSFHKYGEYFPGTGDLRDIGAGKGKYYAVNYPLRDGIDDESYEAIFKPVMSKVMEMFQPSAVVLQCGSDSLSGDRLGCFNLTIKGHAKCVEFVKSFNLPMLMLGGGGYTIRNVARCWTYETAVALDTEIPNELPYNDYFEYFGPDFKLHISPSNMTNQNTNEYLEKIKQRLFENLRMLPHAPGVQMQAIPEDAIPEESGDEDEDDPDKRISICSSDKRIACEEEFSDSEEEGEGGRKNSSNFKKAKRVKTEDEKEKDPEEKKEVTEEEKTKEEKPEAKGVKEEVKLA

[3] = test system: A549 NSCLC cell line; experiment: Cellular cytotoxicity assay (Alamar Blue), A549; type: cell-based; conditions: Homo sapiens
Procedure: (§1) The anti-proliferative activity of the chimeric HDAC and protein kinase inhibitory chimeric compounds of the present invention was evaluated using HeLa cervical carcinoma, A549 NSCLC, SKOV3 ovarian carcinoma, Cal27 head and neck cancer, K562 chronic myeloid leukemia (CML) and EOL1 acute hypereosinophilic myeloid leukemia, cell lines. For quantification of cellular proliferation/living cells the Alamar Blue (Resazurin) cell viability assay was applied (O'Brien et al. Eur Biochem. 267, 5421-5426, 2000). In this assay Resazurin is reduced to the fluorescent resorufin by cellular dehydrogenase activity, correlating with viable, proliferating cells. The examples were dissolved as 20 mM solutions in dimethylsulfoxide (DMSO) and subsequently diluted in semi-logarithmic steps. Cell lines were seeded at respective density into 96 well flat bottom plates in a volume of 200 μl per well. 24 h after seeding 1 μl each of the compound dilutions were added into each well of the 96 well plate. Each compound dilution was tested as quadruplicates. Wells containing untreated control cells were filled with […] DMEM medium containing 0.5% v:v DMSO. The cells were then incubated with the substances for 72 h at 37° C. in a humidified atmosphere containing 5% carbon dioxide. To determine the viability of the cells, 20 μl of an Resazurin solution (Sigma; 90 mg/l) were added. After 4 h incubation at 37° C. the fluorescence was measured at an extinction of 544 nm and an emission of 590 nm. For the calculation of the cell viability the emission value from untreated cells was set as 100% viability and the emission rates of treated cells were set in relation to the values of untreated cells. Viabilities were expressed as % values. The corresponding IC50 values of the compounds for cytotoxic activity are determined from the concentration-effect curves by means of non-linear regression.

[4] = molecular target: T2, EGFR/HER1 (Homo sapiens, UniProt P00533); experiment: Biochemical flash-plate based kinase assay, EGFR/HER1; conditions: only a range over the listed compounds is given; read-out: EGFR/HER1 inhibition IC50
T2 construct: EGFR/HER1 C-terminal kinase domain; made in house
T2 sequence (P00533 712-979 limits assumed): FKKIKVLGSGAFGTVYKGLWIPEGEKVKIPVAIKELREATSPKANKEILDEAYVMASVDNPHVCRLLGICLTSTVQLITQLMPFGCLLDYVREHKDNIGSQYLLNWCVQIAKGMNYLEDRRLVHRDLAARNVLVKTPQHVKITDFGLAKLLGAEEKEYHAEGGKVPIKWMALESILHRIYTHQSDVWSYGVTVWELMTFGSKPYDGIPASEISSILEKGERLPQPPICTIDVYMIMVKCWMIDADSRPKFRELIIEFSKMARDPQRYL
Excerpt: (§2) Active kinase proteins were either obtained from commercial suppliers (Abl, PDGF-Rβ ProQinase, Freiburg/Germany; AblT^315I: Millipore/Upstate, Billerica/USA; PKA: InvitroGen/Panvera, Carlsbad/USA) or prepared in-house (KDR, c-terminal kinase domain AA790-1356, HER2 c-terminal kinase domain, EGFR/HER1 C-terminal kinase domain). As substrates, poly-AGKY for Abl, AblT^315I and PDGF-Rβ (#P-1152 Sigma, Munich/Germany), poly-GluTyr for KDR, HER2 and EGFR/HER1 (#P-0275, Sigma, Munich/Germany) or a PKA substrate peptide for PKA (#12-394, Millipore/Upstate, Billerica/USA) were used. Into each well of a 96-well flashplate (#SMP-200 in the case of Abl, Abl T^315I, PDGF-Rβ, EGFR, HER2 and KDR, #SMP-103 in the case of PKA; Perkin Elmer, Waltham/USA) kinase protein was diluted into kinase assay buffer (50 mM HEPES pH 7.5, 3 mM MgCl2, 3 mM MnCl2, 1 mM DTT, 3 μM sodium orthovanadate, 5 μg/ml PEG 8000) containing the appropriate substrate (final volume 89 μl). DMSO vehicle or compounds are added as 1 μl/well prior to the initiation of the kinase reaction by 10 μl 1 mM [^33P]-γATP (4×10^5 cpm). Reactions were allowed to proceed for a time predetermined to be linear on a time versus phosphorylation plot (30 min for PKA, otherwise 80 min) and terminated with the addition of an equal volume of phosphoric acid (2% H3PO4 for 5 minutes). Plates were washed three times with 0.9% w/v NaCl and quantitated by liquid scintillation counting.

[5] = test system: HeLa cervical carcinoma cell line; experiment: Cellular cytotoxicity assay (Alamar Blue), HeLa; type: cell-based; conditions: Homo sapiens, 72 h
Procedure: as §1

[6] = molecular target: T3, Protein kinase A (PKA) (Homo sapiens, UniProt P17612); experiment: Biochemical flash-plate based kinase assay, PKA
T3 construct: purchased InvitroGen/Panvera, Carlsbad/USA
Excerpt: as §2

[7] = molecular target: T4, HER2 (Homo sapiens, UniProt P04626); experiment: Biochemical flash-plate based kinase assay, HER2; conditions: only a range over the listed compounds is given; read-out: HER2 inhibition IC50
T4 construct: HER2 c-terminal kinase domain; made in house
T4 sequence (P04626 720-987 limits assumed): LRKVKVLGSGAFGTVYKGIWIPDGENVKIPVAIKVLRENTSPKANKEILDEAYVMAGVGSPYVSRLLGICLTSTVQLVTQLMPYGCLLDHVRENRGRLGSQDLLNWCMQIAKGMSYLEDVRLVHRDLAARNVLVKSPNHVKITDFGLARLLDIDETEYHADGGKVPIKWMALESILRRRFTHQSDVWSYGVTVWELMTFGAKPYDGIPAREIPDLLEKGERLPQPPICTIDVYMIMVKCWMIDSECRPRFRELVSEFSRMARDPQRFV
Excerpt: as §2, with “Reactions were allowed to proceed for a time predetermined to be linear on a time versus phosphorylation plot (30 min for PKA, otherwise 80 min) and terminated with the addition of an equal volume of phosphoric acid (2% H3PO4 for 5 minutes).” left out

[8] = molecular target: T5, PDGFRβ (Homo sapiens, UniProt P09619); experiment: Biochemical flash-plate based kinase assay, PDGFRβ; conditions: only a range over the listed compounds is given; read-out: PDGFRβ inhibition IC50
T5 construct: purchased ProQinase, Freiburg/Germany
T5 sequence (P09619 33-1106): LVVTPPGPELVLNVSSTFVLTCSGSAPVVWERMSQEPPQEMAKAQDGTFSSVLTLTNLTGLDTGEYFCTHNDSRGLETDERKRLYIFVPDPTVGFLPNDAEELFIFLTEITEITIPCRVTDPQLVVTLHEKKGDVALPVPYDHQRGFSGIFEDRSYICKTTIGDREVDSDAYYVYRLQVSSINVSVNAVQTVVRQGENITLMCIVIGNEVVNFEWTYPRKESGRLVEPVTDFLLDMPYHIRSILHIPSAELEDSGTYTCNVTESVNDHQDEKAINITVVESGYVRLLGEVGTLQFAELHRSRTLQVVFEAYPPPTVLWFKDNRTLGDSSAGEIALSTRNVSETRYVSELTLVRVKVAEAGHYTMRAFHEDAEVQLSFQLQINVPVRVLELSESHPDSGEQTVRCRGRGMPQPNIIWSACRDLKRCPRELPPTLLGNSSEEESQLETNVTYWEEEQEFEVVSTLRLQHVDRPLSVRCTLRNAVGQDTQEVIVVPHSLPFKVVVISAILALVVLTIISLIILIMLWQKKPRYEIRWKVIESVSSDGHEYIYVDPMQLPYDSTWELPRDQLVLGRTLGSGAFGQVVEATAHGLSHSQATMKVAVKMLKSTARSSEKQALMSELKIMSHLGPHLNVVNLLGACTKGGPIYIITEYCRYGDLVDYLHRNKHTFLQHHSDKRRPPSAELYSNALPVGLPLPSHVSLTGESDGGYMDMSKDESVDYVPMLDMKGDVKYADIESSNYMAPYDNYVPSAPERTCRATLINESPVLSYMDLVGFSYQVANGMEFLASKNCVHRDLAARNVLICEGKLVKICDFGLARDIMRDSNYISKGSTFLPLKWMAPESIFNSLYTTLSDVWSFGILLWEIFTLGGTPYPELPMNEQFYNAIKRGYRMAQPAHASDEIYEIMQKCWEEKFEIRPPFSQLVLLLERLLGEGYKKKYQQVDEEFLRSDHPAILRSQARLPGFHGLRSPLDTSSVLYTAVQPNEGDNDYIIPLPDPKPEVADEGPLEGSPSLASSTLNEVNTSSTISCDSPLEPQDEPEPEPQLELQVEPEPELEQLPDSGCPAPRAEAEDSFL
Excerpt: as §2

[9] = molecular target: T6, Bcr-abl (wt) (Homo sapiens, UniProt P00519); experiment: Biochemical flash-plate based kinase assay, Bcr-abl (wt); conditions: only a range over the listed compounds is given; read-out: Bcr-abl (wt) inhibition IC50
T6 construct: purchased ProQinase, Freiburg/Germany
T6 sequence (P00519 118-553 limits assumed): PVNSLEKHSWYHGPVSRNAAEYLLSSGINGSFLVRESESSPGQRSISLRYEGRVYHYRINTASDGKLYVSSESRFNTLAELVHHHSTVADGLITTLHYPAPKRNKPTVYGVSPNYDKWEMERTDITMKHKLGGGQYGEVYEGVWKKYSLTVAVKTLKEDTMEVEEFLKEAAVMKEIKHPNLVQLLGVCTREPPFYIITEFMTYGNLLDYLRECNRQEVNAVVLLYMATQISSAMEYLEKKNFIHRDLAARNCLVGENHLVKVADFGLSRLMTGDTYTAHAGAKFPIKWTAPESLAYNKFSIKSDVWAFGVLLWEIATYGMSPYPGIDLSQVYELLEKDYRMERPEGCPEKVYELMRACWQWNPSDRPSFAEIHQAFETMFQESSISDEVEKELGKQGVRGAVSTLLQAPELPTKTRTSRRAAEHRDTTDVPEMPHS
Excerpt: as §2

[10] = molecular target: T7, Bcr-abl T^315I (Homo sapiens, UniProt P00519, T315I); experiment: Biochemical flash-plate based kinase assay, Bcr-abl T315I; conditions: only a range over the listed compounds is given; read-out: Bcr-abl T^315I inhibition IC50
T7 construct: purchased Millipore/Upstate, Billerica/USA
Excerpt: as §2

[11] = test system: EOL1 acute hypereosinophilic myeloid leukemia cell line; experiment: Cellular cytotoxicity assay (Alamar Blue), EOL1; type: cell-based; conditions: Homo sapiens, 72 h, only a range over the listed compounds is given, read-out: Cytotoxicity towards EOL1 cell line IC50
Procedure: as §1

[12] = test system: Cal27 head and neck cancer cell line; experiment: Cellular cytotoxicity assay (Alamar Blue), Cal27; type: cell-based; conditions: Homo sapiens, CAL-27; 72 h; only a range over the listed compounds is given; read-out: Cytotoxicity towards Cal27 cell line IC50
Procedure: as §1

[13] = test system: K562 chronic myeloid leukemia (CML) cell line; experiment: Cellular cytotoxicity assay (Alamar Blue), K562; type: cell-based; conditions: Homo sapiens, 72 h, only a range over the listed compounds is given, read-out: Cytotoxicity towards K562 CML cell line IC50
Procedure: as §1

[14] = test system: SKOV3 ovarian carcinoma cell line; experiment: Cellular cytotoxicity assay (Alamar Blue), SKOV3; type: cell-based; conditions: Homo sapiens, SK-OV-3; 72 h; only a range over the listed compounds is given; read-out: Cytotoxicity towards SKOV3 cell line IC50
Procedure: as §1

## O=C(/C=C/c1ccc(-c2ccc3ncnc(Nc4ccc(OCc5cccc(F)c5)c(Cl)c4)c3c2)o1)NO [[2], E-3-(5-{4-[3-Chloro-4-(3-fluorobenzyloxy)-phenylamino]quinazolin-6-yl}furan-2-yl)-N-hydroxy-acrylamide hydrochloride monohydrate]
[1]
  EC50: ≥ 3650 nM
[2]
  IC50: ≥ 35.3 nM
[3]; A549, 72 h, read-out: Cytotoxicity towards A549 NSCLC cell line IC50 (M)
  IC50: ≥ 1.1e-06 M
[4]
  IC50: 2.2 to 150 nM

## O=C(NO)c1ccc(-c2ccc3ncnc(Nc4ccc(OCc5cccc(F)c5)c(Cl)c4)c3c2)o1 [[6], 5-{4-[3-Chloro-4-(3-fluorobenzyloxy)phenylamino]-quinazolin-6-yl}furan-2-carboxylic acid hydroxyamide hydrochloride monohydrate]
[1]
  EC50: ≥ 3650 nM
[5]; read-out: Cytotoxicity towards HeLa cervical cell line IC50 (M)
  IC50: 9.1e-07 to 9.4e-06 M
[2]
  IC50: ≥ 35.3 nM
[6]
  IC50: 85000 nM
[7]
  IC50: 2 to 740 nM

## Cc1ccc(NC(=O)c2ccc(/C=C/C(=O)NO)cc2)cc1Nc1nc(-c2cccnc2)cs1 [[19], (E)-4-(3-(hydroxyamino)-3-oxoprop-1-enyl)-N-(4-methyl-3-(4-(pyridin-3-yl)thiazol-2-ylamino)phenyl)benzamide]
[2]
  IC50: 77 to 1400 nM
[8]
  IC50: 2100 to 71000 nM
[9]
  IC50: 2000 to 39000 nM
[10]
  IC50: 1000 to 34000 nM
[11]
  IC50: 3 to 780 nM

## C#Cc1cccc(Nc2ncnc3ccc(NC(=O)c4ccc(C(=O)Nc5ccccc5N)nc4)cc23)c1 [[36], N^2-(2-aminophenyl)-N^5-(4-(3-ethynylphenylamino)-quinazolin-6-yl)pyridine-2,5-dicarboxamide]
other
  melting point: 213 to 216 °C
[12]
  IC50: 160 to 8000 nM
[4]
  IC50: 2.2 to 150 nM

## O=C(NO)c1ccc(-c2ccc3ncnc(Nc4ccc(OCc5cccc(F)c5)c(Cl)c4)c3c2)s1 [[4], 5-{4-[3-Chloro-4-(3-fluorobenzyloxy)phenyl-amino]quinazolin-6-yl}thiophene-2-carboxylic acid hydroxyamide hydrochloride dihydrate]
[1]
  EC50: ≥ 3650 nM
[4]
  IC50: 2.2 to 150 nM

## Cc1ccc(NCc2ccc(C(=O)Nc3ccccc3N)cc2)cc1Nc1nccc(-c2cccnc2)n1 [[15], N-(2-Amino-phenyl)-4-{[4-methyl-3-(4-pyridin-3-yl-pyrimidin-2-ylamino)-phenylamino]-methyl}-benzamide]
[5]; only a range over the listed compounds is given, read-out: Cytotoxicity towards HeLa cervical cell line IC50
  IC50: ≥ 1.15e-06 M
[3]; A549, 72 h, only a range over the listed compounds is given, read-out: Cytotoxicity towards A549 NSCLC cell line IC50
  IC50: ≥ 2.95e-06 M
[8]
  IC50: 2100 to 71000 nM
[9]
  IC50: 2000 to 39000 nM
[13]
  IC50: 490 to 4070 nM
[10]
  IC50: 1000 to 34000 nM

## CN(C(=O)c1ccc(C(=O)Nc2ccccc2N)cc1)c1cccc(Nc2nccc(-c3cccnc3)n2)c1 [[30], N-(2-Amino-phenyl)-N′-methyl-N′-[3-(4-pyridin-3-yl-pyrimidin-2-ylamino)-phenyl]-terephthalamide]
other
  melting point: 204.6 °C (dec.)
[6]
  IC50: 38000 nM
[10]
  IC50: 1000 to 34000 nM

## O=C(/C=C/c1ccc(-c2ccc3ncnc(Nc4ccc(OCc5cccc(F)c5)c(Cl)c4)c3c2)s1)NO [[7], E-3-(5-{4-[3-Chloro-4-(3-fluorobenzyloxy)-phenylamino]quinazolin-6-yl}thiophene-2-yl)-N-hydroxy-acrylamide hydrochloride monohydrate]
[6]
  IC50: 35000 nM

## C#Cc1cccc(Nc2ncnc3cc(NC(=O)c4ccc(C(=O)Nc5ccccc5N)nc4)ccc23)c1 [[39], Pyridine-2,5-dicarboxylic acid 2-[(2-amino-phenyl)-amide]-5-{[4-(3-ethynyl-phenylamino)-quinazolin-7-yl]-amide}]
[7]
  IC50: 2 to 740 nM
[14]
  IC50: ≥ 560 nM
